Experimental data reported in ChEMBL document CHEMBL1151605, “2-Heterocyclic indole-3-sulfones as inhibitors of HIV-1 reverse transcriptase” (Bioorg Med Chem Lett, 1995).

What was measured:
[1] = biological target: Human immunodeficiency virus type 1 reverse transcriptase (Human immunodeficiency virus 1, UniProt Q72547, K103N); test: Inhibitory activity against K103N mutant of HIV-1 reverse transcriptase
MT4 = test: Antiviral activity in cell culture tested ex vivo in MT-4 cells using the IIIb strain of HIV-1; assay type: functional; settings: Homo sapiens, read-out: CIC95
[2] = biological target: Human immunodeficiency virus type 1 reverse transcriptase (Human immunodeficiency virus 1, UniProt Q72547, K103N/Y181C); test: Inhibitory activity against K103N/Y181C double mutant of HIV-1 reverse transcriptase

Structure (SMILES) | IC50 [1] | IC95 (MT4) | IC50 [2]
O=S(=O)(c1ccccc1)c1c(C2=NCCS2)[nH]c2ccc(Cl)cc12 | 1250 nM | – | –
CCCc1[nH]c(-c2[nH]c3ccc(Cl)cc3c2S(=O)(=O)c2ccccc2)nc1C | – | 50 nM | –
O=S(=O)(c1ccccc1)c1c(-c2nc3c([nH]2)CCCC3)[nH]c2ccc(Cl)cc12 | – | 50 nM | –
O=S(=O)(c1ccccc1)c1c(-c2ncc[nH]2)[nH]c2ccc(Cl)cc12 | – | 2 nM | –
Cc1nc(-c2[nH]c3ccc(Cl)cc3c2S(=O)(=O)c2ccccc2)[nH]c1C | 22 nM | 12 nM | > 30000 nM
Cc1cnc(-c2[nH]c3ccc(Cl)cc3c2S(=O)(=O)c2ccccc2)[nH]1 | – | 12 nM | –
CCc1nc(-c2[nH]c3ccc(Cl)cc3c2S(=O)(=O)c2ccccc2)[nH]c1CC | – | 50 nM | –
Nc1nc(-c2[nH]c3ccc(Cl)cc3c2S(=O)(=O)c2ccccc2)cs1 | – | > 200 nM | –
